According to patent publication US20090111856A1, “Parenteral Formulation Comprising Proton Pump Inhibitor Sterilized in its Final Container by Ionizing Radiation” (priority 2006, published 2009):

Assay: Appearance of acid susceptible proton pump inhibitor powders before and after gamma sterilization
Format: physicochemical
Conditions: for Color change after radiation: gamma sterilization 25 kGy; for Appearance After sterilization (25 kGy) / Appearance Before sterilization: powder; for Appearance After sterilization (25 kGy): after gamma sterilization 25 kGy; for Appearance Before sterilization: before gamma sterilization
Experimental: In addition to esomeprazole sodium exemplified in Example 1, three other acid susceptible proton pump inhibitors, omeprazole sodium, pantoprazole sodium and lansoprazole, were gamma sterilized with a sterilizing dose of 25 kGy. The appearance of the powder was determined before and after gamma sterilization.

Color change after radiation	Appearance After sterilization (25 kGy)	Appearance Before sterilization	SMILES
no color change	–	–	Cc1c(OCC(F)(F)F)ccnc1C[S+]([O-])c1nc2ccccc2[nH]1 (stereo not shown) [Lansoprazole]
some small (very minor) color changes	Very slightly yellow	White to off-white	COc1ccc2[n-]c([S+]([O-])Cc3ncc(C)c(OC)c3C)nc2c1.[Na+] (stereo not shown) [Omeprazole sodium]
some small (very minor) color changes	Very slightly yellow	White to off-white	COc1ccnc(C[S+]([O-])c2nc3ccc(OC(F)F)cc3[nH]2)c1OC (stereo not shown) [Pantoprazole sodium]
